From patent publication US10471050B2, “2-OXO-1,2-dihydropyridine-3,5-dicarboxamide compounds as bromodomain inhibitors” (GlaxoSmithKline Intellectual Property (No. 2) Limited, priority 2015, dated 2019)
Like-named read-outs stand apart in the source and are kept apart here.

How the values were obtained:
[1] = system: BET family (BRD2, BRD3, BRD4 and BRDT) tandem bromodomain proteins, Tyr to Ala mutants; assay: Fluorescence Polarisation binding of Reference Compound X to single and double mutant tandem BET proteins; set-up: species or system Human
Method: The competition of the compounds of formula (I) with Reference Compound X for binding to the BET family (BRD2, BRD3, BRD4 and BRDT) was assessed using protein truncates spanning both bromodomain 1 (BD1) and bromodomain 2 (BD2). In order to monitor differential binding to either BD1 or BD2, single residue mutations of key tyrosines to alanine were made in the acetyl lysine binding pockets. To validate this approach, a double residue mutant tandem domain protein was produced for each of the BET family members. Utilising a Fluorescence Polarisation approach, binding affinities for each of the single and double mutants for Reference Compound X were determined. […] The affinities of the single mutated bromdomain tandem proteins for Reference Compound X were equi-potent with the corresponding non-mutated BET protein. […] In the TR-FRET competition assay, Reference Compound X is used at a concentration that is equivalent to the Kd for the non-mutated bromodomain, which ensures that no binding at the mutated bromodomain is detected.
Protein production: Recombinant Human Bromodomains [(BRD2 (1-473) (Y113A) and (Y386A), BRD3 (1-435) (Y73A) and (Y348A) BRD4 (1-477) (Y97A) and (Y390A) and BRDT (1-397) (Y66A) and (Y309A)] were expressed in E. coli cells (in pET15b vector for BRD2/3/4 and in pET28a vector for BRDT) with a 6-His tag at the N-terminal. The His-tagged Bromodomain pellet was resuspended in 50 mM HEPES (pH7.5), 300 mM NaCl, 10 mM imidazole & 1 μl/ml protease inhibitor cocktail and extracted from the E. coli cells using sonication and purified using a nickel sepharose high performance column, the proteins were washed and then eluted with a linear gradient of 0-500 mM imidazole with buffer 50 mM HEPES (pH7.5), 150 mM NaCl, 500 mM imidazole, over 20 column volumes. Final purification was completed by Superdex 200 prep grade size exclusion column. Purified protein was stored at −80° C. in 20 mM HEPES pH 7.5 and 100 mM NaCl. Protein identity was confirmed by peptide mass fingerprinting and predicted molecular weight confirmed by mass spectrometry.

BRD4 BD2 = target: T1, BRD4 BD2 (Homo sapiens, UniProt O60885, Y97A); assay: BRD4 BD2 TR-FRET competition assay; format: binding
T1 construct: BRD4 (1-477) (Y97A) and (Y390A); made in house; host or cells: E. coli (pET15b vector)
Method: Bromodomain binding was assessed utilising a time resolved fluorescent resonance energy transfer (TR-FRET) competition assay. To enable this approach a known, high affinity, pan-BET interacting small molecule was labelled with Alexa Fluor® 647, which is a far-red-fluorescent dye (Reference Compound X). Reference Compound X acts as a reporter of bromodomain binding and is the acceptor fluorophore component of the TR-FRET pair. Europium chelate, conjugated to an anti-6*His antibody, was utilised as the donor fluorophore in the TR-FRET pair. […] A TR-FRET signal is generated when the donor and acceptor fluorophores are in close proximity, between 20-80 Å, which is enabled in this assay by binding of Reference Compound X to the bromodomain protein.
In order to generate a TR-FRET signal, donor fluorophore is excited by a laser at λ337 nm, which subsequently leads to emission at λ618 nm. If the acceptor fluorophore is in close proximity then energy transfer can occur, which leads to emission of Alexa Fluor® 647 at λ665 nm. In the presence of competitor compound, Reference Compound X can be displaced from binding to the bromodomain. If displacement occurs, the acceptor fluorophore is no longer in proximity to the donor fluorophore, which prevents fluorescent energy transfer and, subsequently, a loss of Alexa Fluor® 647 emission at λ665 nm.
The competition of the compounds of formula (I) with Reference Compound X for binding to the BET family (BRD2, BRD3, BRD4 and BRDT) was assessed using protein truncates spanning both bromodomain 1 (BD1) and bromodomain 2 (BD2). In order to monitor differential binding to either BD1 or BD2, single residue mutations of key tyrosines to alanine were made in the acetyl lysine binding pockets. To validate this approach, a double residue mutant tandem domain protein was produced for each of the BET family members. Utilising a Fluorescence Polarisation approach, binding affinities for each of the single and double mutants for Reference Compound X were determined.
Final purification was completed by Superdex 200 prep grade size exclusion column. Purified protein was stored at −80° C. in 20 mM HEPES pH 7.5 and 100 mM NaCl.
All assay components were dissolved in an assay buffer composing of 50 mM HEPES pH7.4, 50 mM NaCl, 5% Glycerol, 1 mM DTT and 1 mM CHAPS. Reference Compound X was diluted, in assay buffer containing 20 nM single mutant, tandem bromodomain protein, to a concentration equivalent to 2*Kd for this bromodomain. The solution containing bromodomain and Reference Compound X was added to dose response dilutions of test compound or DMSO vehicle (a maximum of 0.5% DMSO is used in this assay) in Greiner 384 well black low volume microtitre plates and subsequently incubated for 30 minutes at room temperature. An equal volume of 3 nM of anti-6*His Europium chelate was added to all wells, followed by a further 30 minute incubation at room temperature. TR-FRET was detected using a Perkin Elmer Multimode plate reader, by exciting the donor fluorophore at λ337 nm and subsequently, after a delay of 50 μsecs, measuring emission of the donor and acceptor fluorophores at λ615 nm and λ665 nm, respectively. In order to control these assays, 16 replicates each of uninhibited (DMSO vehicle) and inhibited (10*IC50 concentrations of Example 11 of WO 2011/054846A1) TR-FRET assays were included on every microtitre plate.
cA four parameter curve fit of the following form was then applied: y=a+((b−a)/(1+(10^x/10^c)^d)
Where ‘a’ is the minimum, ‘b’ is the Hill slope, ‘c’ is the pIC50 and ‘d’ is the maximum.

[2] = single mutant tandem BRD4, read-out: pIC50 in the BRD4 BD2 assay (converted)

Row | IC50 (BRD4 BD2; [2]) | Structure (SMILES) | further results
1 | 1000 to 100000 nM | CNC(=O)c1cc(C(=O)NCC(C)O)cn(Cc2ccccc2)c1=O (centres unmarked) [Example 31, 1-Benzyl-N^5-(2-hydroxypropyl)-N^3-methyl-2-oxo-1,2-dihydropyridine-3,5-dicarboxamide] | –
2 | 100 to 1000 nM | CNC(=O)c1cc(C(=O)NCCCO)cn(Cc2ccccc2)c1=O [Example 32, 1-Benzyl-N^5-(3-hydroxypropyl)-N^3-methyl-2-oxo-1,2-dihydropyridine-3,5-dicarboxamide] | –
3 | 100 to 1000 nM | CNC(=O)c1cc(C(=O)NCCC(C)N(C)C)cn(Cc2ccccc2)c1=O (centres unmarked) [Example 33, 1-Benzyl-N^5-(3-(dimethylamino)butyl)-N^3-methyl-2-oxo-1,2-dihydropyridine-3,5-dicarboxamide] | –
4 | 100 to 1000 nM | CNC(=O)c1cc(C(=O)NCCc2ccncc2)cn(Cc2ccccc2)c1=O [Example 34, 1-Benyl-N^3-methyl-2-oxo-N^5-(2-(pyridin-4-yl)ethyl)-1,2-dihydropyridine-3,5-dicarboxamide] | –
5 | ≤ 100 nM | CCNC(=O)c1cc(C(=O)NC)c(=O)n(Cc2cccc3[nH]ccc23)c1 [Example 25, 1-((1H-Indol-4-yl)methyl)-N^5-ethyl-N^3-methyl-2-oxo-1,2-dihydropyridine-3,5-dicarboxamide] | IC50 (BRD4 BD2; average of N recorded values, read-out: BRD4 BD2 IC50 (average value) (converted)): 25.1 nM
6 | 100 to 1000 nM | CNC(=O)c1cc(C(=O)NCCc2cccnc2)cn(Cc2ccccc2)c1=O [Example 40, 1-Benzyl-N^3-methyl-2 oxo-N^5-(2-(pyridin-3-yl)ethyl)-1,2-dihydropyridine-3,5-dicarboxamide] | –
7 | 100 to 1000 nM | CNC(=O)c1cc(C(=O)NCCc2cnn(C)c2)cn(Cc2ccccc2)c1=O [Example 52, 1-Benzyl-N^3-methyl-N^5-(2-(1-methyl-1H-pyrazol-4-yl)ethyl)-2-oxo-1,2-dihydropyridine-3,5-dicarboxamide] | –
8 | 100 to 1000 nM | CNC(=O)c1cc(C(=O)NCCC(C)O)cn(Cc2ccccc2)c1=O (centres unmarked) [Example 39, 1-Benzyl-N^5-(3-hydroxybutyl)-N^3-methyl-2-oxo-1,2-dihydropyridine-3,5-dicarboxamide] | –
9 | 100 to 1000 nM | CNC(=O)c1cc(C(=O)Nc2ccn(C)n2)cn(Cc2ccccc2)c1=O [Example 51, 1-Benzyl-N^3-methyl-N^5-(1-methyl-1H-pyrazol-3-yl)-2-oxo-1,2-dihydropyridine-3,5-dicarboxamide] | –
10 | 100 to 1000 nM | CNC(=O)c1cc(C(=O)NCCCS(C)(=O)=O)cn(Cc2ccccc2)c1=O [Example 48, 1-Benzyl-N^3-methyl-N^5-(3-(methylsulfonyl)propyl)-2-oxo-1,2-dihydropyridine-3,5-dicarboxamide] | –

Further lines, the compound ahead of its results:

Row | Structure (SMILES) | IC50 (BRD4 BD2; [2]) | further results
11 | COc1ccc2c(c1)C(c1ccc(Cl)cc1)=N[C@@H](CC(=O)NCCCCCNC(=O)CCCCCC1(C)/C(=C/C=C/C=C/C3=[N+](CCCCS(=O)(=O)O)c4ccc(S(=O)(=O)O)cc4C3(C)C)N(CCCCS(=O)(=O)[O-])c3ccc(S(=O)(=O)O)cc31)c1nnc(C)n1-2 (some centres unmarked) [Reference Compound X] | – | reduction in Kd, double mutant tandem proteins versus non mutated wild type tandem BET proteins ([1]; double residue Tyr to Ala mutant tandem protein of each BET family member): > 1000 fold; affinity of single mutated bromodomain tandem proteins versus corresponding non-mutated BET protein ([1]; single Tyr to Ala mutants): equi-potent; reduction of Kd of the interaction between the mutated bromodomain and Reference Compound X ([1]; single mutation of Tyrosine to Alanine): > 1000 fold
12 | CNC(=O)c1cc(C(=O)NCCCC(=O)OC)cn(Cc2ccccc2)c1=O [Example 9, Methyl 4-(1-benzyl-5-(methylcarbamoyl)-6-oxo-1,6-dihydropyridine-3-carboxamido)butanoate] | 100 to 1000 nM | –
13 | CNC(=O)c1cc(C(=O)NCCc2ccccn2)cn(Cc2ccccc2)c1=O [Example 10, 1-Benzyl-N^3-methyl-2-oxo-N^5-(2-(pyridin-2-yl)ethyl)-1,2-dihydropyridine-3,5-dicarboxamide] | 100 to 1000 nM | –
14 | CNC(=O)c1cc(C(=O)NCCc2cn[nH]c2)cn([C@H](C)c2ccccc2)c1=O [Example 15, (R)-N^5-(2-(1H-Pyrazol-4-yl)ethyl)-N^3-methyl-2-oxo-1-(1-phenylethyl)-1,2-dihydropyridine-3,5-dicarboxamide] | ≤ 100 nM | –
15 | CNC(=O)c1cc(C(=O)NCCCNC(=O)OC(C)(C)C)cn(Cc2ccccc2)c1=O [Example 6, tert-Butyl (3-(1-benzyl-5-(methylcarbamoyl)-6-oxo-1,6-dihydropyridine-3-carboxamido)propyl)carbamate] | 100 to 1000 nM | –
16 | CNC(=O)c1cc(C(=O)NCCc2c[nH]cn2)cn(Cc2cccc(OCCO)c2)c1=O [Example 19, N^5-(2-(1H-imidazol-4-yl)ethyl)-1-(3-(2-hydroxyethoxy)benzyl)-N^3-methyl-2-oxo-1,2-dihydropyridine-3,5-dicarboxamide] | 100 to 1000 nM | –
17 | CCNC(=O)c1cc(C(=O)NC)c(=O)n([C@H](C)c2ccccc2)c1 [Example 16, (R)-N^5-Ethyl-N^3-methyl-2-oxo-1-(1-phenylethyl)-1,2-dihydropyridine-3,5-dicarboxamide] | 100 to 1000 nM | –
